Results reported in publication PMC6020689 (Angewandte Chemie (International ed. in English), 2018).

Target: EtCYP112 (Erwinia tracheiphila, UniProt A0A0M2KIP9)
Assay: GC-MS product analysis, reconstituted system
Type: biochemical
Conditions: spinach Fd, EtFdR

Structure (SMILES)	GC-MS product analysis, reconstituted system (NADPH in excess)	GC-MS product analysis, reconstituted system (NADPH)
C=C1C[C@]23C[C@H]1CC[C@H]2[C@]1(C)CCC[C@@](C)(C(=O)O)[C@H]1[C@@H]3C(=O)O [GA12]	reconstituted system with purified ferredoxin reductase from E. tracheiphila (EtFdR) and spinach ferredoxin (Fd), converting GA12	–
C=C1C[C@]23C[C@H]1CC[C@H]2[C@]1(C=O)CCC[C@@](C)(C(=O)O)[C@H]1[C@@H]3C(=O)O [GA24]	–	while GA15 and GA24 were readily converted to GA9, GA25 is not
